# Data: patent US4910193A, “Treatment of gastrointestinal disorders” (Sandoz Ltd., priority 1987, dated 1990)
# Counter-ions that a name gives are not always drawn. Like-named read-outs stand apart in the source and are kept apart here.
# Legend:
# [1] = system: gastrointestinal motility induced by 5-hydroxytryptophan (5-HTP); assay: Test C: inhibition of increase in gastrointestinal motility induced by 5-HTP; type: in vivo, mouse (male NMRI); conditions: Mus musculus, ip; inhibition of 5-HTP induced motility
# Method: In a further test the inhibition of the compounds of the invention in inhibiting the increase in gastrointestinal motility induced by 5-hydroxytryptophan (5-HTP) was observed.
# Male NMRI mice (18-32 g in weight) are deprived of food 20 hours before the test. Water is not limited. The animals are separated by a barrier from their straw and access to feces. At the beginning of the test the animals are separated in individual single cages and water is removed.
# All animals were treated with the test compound or saline. I.p. administration was used. Injection volume was 0.1 ml/10 g. 30 minutes after pre-treatment 5-HTP or saline was administered. Injection volume 0.1 ml/10 g. Dose 3 mg/kg. At the same time charcoal was administered perorally (10% suspension in water; 0.1 ml/10 g). 45 minutes after the start of the experiment the animals were killed. The intestines from the stomach to the rectum were examined. For each animal the transit distance of the front of the charcoal mean along the intestine was measured. The distance was ascertained as a percentage of the whole intestinal length. Groups of at least 3 animals were used.
# [2] = Properties of salt forms (solubility, stability); type: physicochemical; conditions: in words
# dopamine binding sites [3] = assay: Binding to dopamine sites with tritiated haloperidol
# Method: Several drugs e.g. metoclopramide are known for the treatment of gastrointestinal disorders (gut motility disorders). Action has been ascribed to opiates (e.g. loperamide), dopaminergic compounds (e.g. metoclopramide) although for most drugs the mode of the action is not well understood (see J. R. Malegeleda Scand. J. Gastroenterology, 19, Suppl. 96, 1984, pp. 115-121).
# The compounds of the invention have insignificant action on dopamine binding sites, e.g. having an IC50 of […] or more using tritriated haloperidol.
# [4] = target: T1, low affinity 5-HT receptor (Cavia porcellus, UniProt O70212); assay: Isolated longitudinal muscle of guinea pig ileum, 5-HT contraction, low affinity receptor; conditions: read-out: pA2 (converted)
# T1 construct: The isolated longitudinal muscle of the guinea pig ileum with its adhering myenteric plexus; from tissue; host or cells: longitudinal muscle strips of ileum with myenteric plexus, male guinea pigs
# T1 sequence (O70212 20-490): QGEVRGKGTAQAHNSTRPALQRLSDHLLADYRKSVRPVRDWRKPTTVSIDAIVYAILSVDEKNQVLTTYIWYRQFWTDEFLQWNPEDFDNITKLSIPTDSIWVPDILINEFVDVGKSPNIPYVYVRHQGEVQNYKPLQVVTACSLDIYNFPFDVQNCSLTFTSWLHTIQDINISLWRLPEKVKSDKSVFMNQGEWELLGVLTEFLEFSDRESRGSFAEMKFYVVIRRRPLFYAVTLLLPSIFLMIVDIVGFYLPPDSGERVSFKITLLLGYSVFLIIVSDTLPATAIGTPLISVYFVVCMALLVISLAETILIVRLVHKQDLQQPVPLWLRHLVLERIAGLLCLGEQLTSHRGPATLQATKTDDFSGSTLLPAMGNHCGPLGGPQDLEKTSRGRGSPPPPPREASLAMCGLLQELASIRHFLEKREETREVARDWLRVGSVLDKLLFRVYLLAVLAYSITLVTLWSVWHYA
# Method: Male guinea pigs (200-400 g) were killed by a blow on the head and exsanguineated. A length of small intestine was removed about 2 cm from the ileo-caecal valve. The mesentery was carefully removed and the ileum was stretched over a glass rod. By stroking tangentially away from the mesenteric attachement with a wad of cotton wool, the longitudinal muscle layer was separated and stripped from the unterlying circular muscle. Longitudinal muscle strips, 3-4 cm length, were mounted in a 10 ml organ bath containing Tyrode solution at 37° C. and bubbled with 5% carbon dioxide in oxygen. […] The strips were placed under a resting tension of 500 mg. Contractions were recorded with an isotonic pendulum lever. After equilibration for 30 min a set concentration of carbachol was applied in 10 min intervals until a consistent reaction was achieved.
# Production of the concentration/reaction curve
# Non-cumulative concentration-response curves for 5-HT were established by adding increasing concentrations of the agonist to the organ bath at intervals of at least 15 min. […] Each concentration was left in contact with the tissue for 1 min. […] The contractions expressed as percentage of the maximal response to 5-HT obtained from several preparations were plotted as mean values in order to obtain log-concentration-response curves.
# [5] = system: high affinity 5-HT receptor; assay: Isolated longitudinal muscle of guinea pig ileum, 5-HT contraction, high affinity receptor
# Text: The isolated longitudinal muscle of the guinea pig ileum with its adhering myenteric plexus is a well established model which permits investigation of the mechanism of action of various neurotransmitters.
# Male guinea pigs (200-400 g) were killed by a blow on the head and exsanguineated. A length of small intestine was removed about 2 cm from the ileo-caecal valve. The mesentery was carefully removed and the ileum was stretched over a glass rod. By stroking tangentially away from the mesenteric attachement with a wad of cotton wool, the longitudinal muscle layer was separated and stripped from the unterlying circular muscle. Longitudinal muscle strips, 3-4 cm length, were mounted in a 10 ml organ bath containing Tyrode solution at 37° C. and bubbled with 5% carbon dioxide in oxygen. The Tyrode solution was of the following composition (mmol/l): NaCl, 137.0; CaCl2, 1.8; KCl, 2.7; MgCl2, 1.05; NaHCO3, 11.9; NaH2 PO4, 0.4; glucose, 5.6. The strips were placed under a resting tension of 500 mg. Contractions were recorded with an isotonic pendulum lever. […]
# Each concentration was left in contact with the tissue for 1 min. […] Inhibition constants were expressed in the form of pA2 values which were graphically determined according to conventional methods (Arunlakshana and Schild, 1959. McKay 1978). […]
# dopamine binding sites [6] = conditions: tritiated haloperidol; read-out: IC50 dopamine sites (literature); cited from earlier work
# dopamine = conditions: in words; comparison drug; cited from earlier work
# 5-HT reflex = conditions: in words; comparison drug; cited from earlier work
# rabbit heart = conditions: in words; cited from earlier work
# [7] = system: chloera toxin-induced secretory diarrhea; design: species or system mouse (male NMRI); conditions: mouse, in vivo
# [8] = system: 5-HT3 receptors in the guinea pig ileum; conditions: counteracting 5-HT induced spasms; cited from earlier work
# rabbit vagus = conditions: in words; cited from earlier work
# [9] = system: muscle strips from different parts of the guinea pig stomach; assay: Test A: field stimulation-induced contractions in guinea pig stomach muscle strips; design: species or system guinea pig (male Dunkin-Hartley)
# Text: The compounds of the invention facilitate field stimulation-induced contractions in muscle strips from different parts of the guinea pig stomach and are therefore indicated to increase decreased peristalic movements in the stomach and to enhance gastric emptying in vivo. The test is effected as follows:
# Male Dunkin-Hartley guinea pigs, 340-450 g, which had been starved overnight, were killed by cervical transsection and the stomach removed and placed in Krebs-Henseleit solution (NaCl 118.0, KCl 4.75, KH2 PO4 1.2, MgSO4 1.2, CaCl2 2.5, glucose 10 mM). Segments were taken from the body (approximately 20 mm long, 3-4 mm wide) with dissection in a plane suitable to investigate tension changes in the circular muscle layer. Tissues were placed in 30 ml organ baths containing oxygenated (95% O2, 5% CO2) Krebs-Henseleit solution at 37° C. One gram tension was applied to the tissues which were allowed to equilibrate for 45-60 min. before electrical stimulation. […] Responses were measured as changes in gram tension, but to allow easier comparison between treatments, data was converted to show changes as percentage values. The significance of differences between control responses and those obtained in the presence of interacting drugs was assessed using the Mann-Whitney U test.
# [10] = system: conscious guinea pigs having stomachs made atonic; assay: Test B: gastric emptying in conscious guinea pigs (X-ray of spheroids); type: in vivo, guinea pig; conditions: versus metoclopramide
# Method: The compounds of the invention also induce gastric emptying as indicated in standard in vivo tests, e.g. in conscious guinea pigs having stomachs made atonic (i.e. having decreased peristaltic movements) by fasting and wherein the passage of glass spheroids was observed by X-ray techniques. The experiments is effected as follows:
# Food was withdrawn for 14 hours before the measurement of gastric emptying. The experiment was conducted under low illumination with minimal noise and disturbance, and was carried out only by those experimentors who had daily contact with the guinea pigs and who carried out the initial training to accustom the guinea pigs to handling. Therefore, animals were subject to minimal stress. […] Gastric emptying was measured as the number of spheroids leaving the stomach.
# Six guinea pigs were used at each dose level of drug and responses compared to those of guinea pigs receiving the appropriate vehicle. The significance of differences between drug and control responses was assessed using the Mann Whitney U test.
smiles,measurement,setting,value
"CN1[C@@H]2CCC[C@H]1C[C@@H](OC(=O)c1cn(C)c3ccc(F)cc13)C2 [Compound G, 5-fluoro-1-methyl-indol-3-yl carboxylic acid endo-9-methyl-9-aza-bicyclo[3,3,1]non-3-yl ester]",ED50,[1],0.002 mg/kg
CN1[C@@H]2CCC[C@H]1C[C@@H](OC(=O)c1cn(C)c3ccc(F)cc13)C2 [hydrogen maleate of compound G],solubility and stability properties of salt form,[2],"especially advantageous properties, e.g. from the solubility and stability point of view"
CNc1cc(OC)c(C(=O)NC2CN3CCC2CC3)cc1Cl (centres unmarked) [Example 71],IC50,dopamine binding sites [3],> 10000 nM
"CN1[C@@H]2CCC[C@H]1C[C@@H](OC(=O)c1csc3ccccc13)C2 [Compound F, Benzo[b]thiophen-3-yl carboxylic acid endo-9-methyl-aza-bicyclo[3,3,1]non-3-yl ester]",Kb,[4],0.398 nM
same,pD'2,[5],5.9
same,ED50,[1],0.025 mg/kg
CN1[C@@H]2CCC[C@H]1C[C@@H](OC(=O)c1csc3ccccc13)C2 [hydrochloride of compound F],solubility and stability properties of salt form,[2],"especially advantageous properties, e.g. from the solubility and stability point of view"
CCN(CC)CCNC(=O)c1cc(Cl)c(N)cc1OC [metoclopramide],IC50,dopamine binding sites [6],~170 nM
same,dopamine action,dopamine,dopamine agonist action
CN1[C@@H]2CC[C@H]1C[C@@H](OC(=O)C(CO)c1ccccc1)C2 (some centres unmarked) [atropine],effect on the whole reflex,5-HT reflex,paralyse the whole reflex
"CN1[C@@H]2CC[C@H]1C[C@@H](OC(=O)c1c[nH]c3ccccc13)C2 [Compound E, Indol-3-yl carboxylic acid endo-8-methyl-8-aza-bicyclo-[3,2,1]oct-3-yl ester]",action against 5-HT on rabbit heart,rabbit heart,antagonistic action against 5-HT
same,Kb,[4],12.6 nM
same,effect of increased dose on stomach contents,[7],did not lead to a reduction in the stomach contents
same,pD'2,[5],5.7
same,action at 5-HT3 receptors in guinea pig ileum,[8],competitive antagonist of the 5-HT3 receptors in the guinea pig ileum
same,ED50,[1],0.07 mg/kg
same,action against 5-HT on rabbit vagus,rabbit vagus,antagonistic action against 5-HT
same,EC (maximal response),"[9]; Cavia porcellus, field stimulation of stomach strips, read-out: concentration producing maximal response",0.01 µM
same,times more active than metoclopramide (contraction),[9]; versus metoclopramide,100 times
same,times more active than metoclopramide (gastric emptying),[10],about 50 times
